Measured values from ChEMBL document CHEMBL1149928, “Stabilization of a prostaglandin tertiary allylic alcohol system by fluorine: synthesis, acid stability studies and pharmacology of a 16-fluoromethyl analog of SC-46275” (1992).

Tests used:
[1] = tested on: Canis familiaris; assay: Compound was evaluated for the gastric antisecretory activity in food stimulated Pavlov pouch dogs by intrapouch administration; format: functional; settings: Canis lupus familiaris, Stomach
[2] = tested on: Rattus norvegicus; assay: Compound was evaluated for the diarrheal effects in adult male rats by intragastric administration; format: functional; settings: po

Compound	ED50 [1]	ED50 [2]
COC(=O)CC/C=C\CC[C@H]1C(=O)C[C@@H](O)[C@@H]1/C=C/C[C@@](O)(/C=C/C1=CCCC1)CF	0.05 µg/kg	> 3.16 mg/kg
COC(=O)CC/C=C\CC[C@H]1C(=O)C[C@@H](O)[C@@H]1/C=C/C[C@@](C)(O)/C=C/C1=CCCC1	0.01 µg/kg	> 3.16 mg/kg
